Experiments:
[1] = system: normal baby rat kidney cells; assay: Susceptibility of normal baby rat kidney cells; format: cell-based; settings: similar conditions; data not shown
Description: In the absence of anti-apoptotic Bcl-2, all baby rat kidney cells died within a few days (data not shown).

[2] = system: B23 cells; assay: cells; format: cell-based, Human
Description: (§1) Human anti-apoptotic Bcl-2 over-expressing epithelial cells (B23 cells) (Nguyen et al. (1994) J. Biol. Chem. 269 (24): 16521-24) were plated in 24-well plates at a density of about 80,000 cells per well and infected with 12S-adenovirus, which expresses the E1A oncogene (Nguyen et al. (1998) J. Biol. Chem. 273 (50): 33099-102). Normal human breast epithelial cells, MCF-7 breast cancer cells and MBA-MB231 breast cancer cells were plated in 24-well plates at a density of between 70,000-80,000 cells per well. After incubation at 37° C. for the indicated times in a 5% CO2 incubator, cells were harvested and cell death was monitored using a trypan blue assay as described in Ausubel et al. (1988) Current Protocols in Molecular Biology, Section 11.5.1 (Greene Publishing Associates and Intersciences, New York)).
Normally, intracellular expression of an oncogene in cells results in apoptotic cell death. However, if anti-apoptotic Bcl-2 is over-expressed in these cells, they are protected from apoptosis. Therefore, an anti-cancer compound's activity can be monitored by measuring cell death in B23 cells in the presence of the E1A oncogene.

[3] = Trypan blue cell death assay in normal human breast epithelial cells; format: cell-based; settings: human
Description: as §1

[4] = system: Normal human breast epithelial cells; assay: as above; format: cell-based; settings: 1 μM
Description: as §1

[5] = system: E1A cells; assay: E1A-Bcl2 killing assay; format: cell-based
Description: as §1
IC50 values determined for these illustrative compounds in an E1A killing assay, using the materials and methods described above. These compounds have been described in Gerber et al. (1975), Critical Reviews in Microbiology, pp. 469-85.

[6] = molecular target: T1, Bcl-w (Homo sapiens, UniProt Q92843); assay: Anti-apoptotic:Pro-apoptotic binding assay, Bcl-w
T1 sequence (Q92843 1-193): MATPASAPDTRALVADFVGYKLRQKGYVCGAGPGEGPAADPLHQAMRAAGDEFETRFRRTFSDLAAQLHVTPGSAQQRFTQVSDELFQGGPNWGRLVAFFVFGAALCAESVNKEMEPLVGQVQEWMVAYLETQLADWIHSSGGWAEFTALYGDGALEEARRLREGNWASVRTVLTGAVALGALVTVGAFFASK

[7] = system: MBA-MB231 breast cancer cells; assay: cells; format: cell-based; settings: 72 h, read-out: Cytotoxicity (% Dead Cells)
Description: as §1

[8] = molecular target: Bcl-2 (Homo sapiens, UniProt P10415); assay: Anti-apoptotic:Pro-apoptotic binding assay, Bcl-2
Sequence of Bcl-2 (P10415 whole entry): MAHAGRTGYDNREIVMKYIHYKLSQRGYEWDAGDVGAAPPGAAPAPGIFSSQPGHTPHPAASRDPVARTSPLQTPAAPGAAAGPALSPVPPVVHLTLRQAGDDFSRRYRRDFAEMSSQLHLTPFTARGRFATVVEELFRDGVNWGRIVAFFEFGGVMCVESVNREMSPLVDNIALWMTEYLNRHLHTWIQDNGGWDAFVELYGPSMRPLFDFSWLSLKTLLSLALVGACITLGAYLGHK

[9] = system: Human oral epithelial carcinoma cells (KB cells); assay: Apoptosis reinstatement in Bcl-2 over-expressing KB cells (trypan blue); format: cell-based
Description: Human oral epithelial carcinoma cells (KB cells) with and without stably expressed anti-apoptotic Bcl-2 were infected with 12S-adenovirus expressing the E1A oncogene, as described above in Example 6.1. Cell death was monitored 70 hours after infection using the trypan blue assay described above.

[10] = system: B23 cells; format: cell-based, Human; settings: B23 cells without E1A; data not shown
[11] = system: MCF-7 breast cancer cells; assay: Trypan blue cell death assay in MCF-7 breast cancer cells; format: cell-based; settings: Homo sapiens, MCF7, 72 h, read-out: Cytotoxicity (% Dead Cells)
Description: as §1

[12] = system: Baby rat kidney cells; assay: Transformation of baby rat kidney cells transfected with E1A oncogene and Bcl-2 (colony count); format: cell-based
Description: Baby rat kidney cells were transfected with RcRSV (Hartl et al. (1992) Cell Growth Differ. 3 (12): 909-18) expressing both E1A oncogene and anti-apoptotic Bcl-2 as described in (Lin et al. (1995) Mol. Cell. Biol. 15 (8): 4536-44). Transfected cells were then cultured (Lin et al. (1995) Mol. Cell. Biol. 15 (8): 4536-44) in the presence of varying concentrations of Butyl-meta-cycloheptylprodiginine for three weeks and the number of transformed cell colonies was counted.

[13] = Homo sapiens, 72 h, read-out: Cytotoxicity (% Dead Cells)

CCCCC1CCCCCCc2cc1c(/C=C1\N=C(c3ccc[nH]3)C=C1OC)[nH]2 (stereo not shown) [Butyl-meta-cycloheptylprodiginine, butyl-meta-cycloheptylprodiginine]
Susceptibility of normal baby rat kidney cells [1]: not susceptible | Concentration able to inhibit Bcl-2 in B23 cells and re-establish the killing effect of the E1A oncogene ([2]; B23 cells with E1A, concentrations as low as): 0.25 µM | cytotoxicity at 1 µM [2, 13]: 85% | cytotoxicity at 2 µM [2, 13]: 95% | cytotoxicity at 0.25 µM ([2]; Homo sapiens, B23 cells, 0.25 μM, 72 h, read-out: Cytotoxicity (% Dead Cells)): 75% | cytotoxicity at 72 h, 0.25 µM [3]: 5% | cytotoxicity at 72 h, 1 µM [3]: 5% | cytotoxicity at 72 h, 2 µM [3]: 15% | Effect on normal human breast epithelial cells [4]: not affected | IC50 ([5]; read-out: IC50 (μM) E1A-Bcl2 killing assay): 0.05 µM | IC50 [6]: 100 µM | cytotoxicity at 0.25 µM [7]: 64% | cytotoxicity at 1 µM [7]: 100% | cytotoxicity at 2 µM [7]: 100% | IC50 [8]: 125 µM | Apoptosis in uninfected KB cells ([9]; uninfected cells, same concentrations): no effect on apoptosis | Apoptosis in E1A-infected Bcl-2 over-expressing KB cells ([9]; various concentrations, 70 hours after infection): reinstate apoptosis | Effect on B23 cell death in the absence of E1A [10]: no significant effect | cytotoxicity at 0.25 µM [11]: 70% | cytotoxicity at 1 µM [11]: 100% | cytotoxicity at 2 µM [11]: 100% | Apoptosis of transformed colonies ([12]; baby rat kidney cells transformed with Bcl-2 and E1A): promoted apoptosis of the transformed colonies | Number of transformed cell colonies (ability of Bcl-2 to transform cells in the presence of E1A) ([12]; increasing concentrations, three weeks): significantly lowered the ability of anti-apoptotic Bcl-2 to transform cells

CCC1CCCCCCCCc2ccc([nH]2)/C=C2\N=C(C=C2OC)c2ccc1[nH]2 (stereo not shown) [Ethylcyclononylprodiginine, ethylcyclononyl-prodiginine]
cytotoxicity at 1 µM [2, 13]: 15% | cytotoxicity at 5 µM [2, 13]: 20% | inhibition at 5 µM ([5]; read-out: % inhibition at μM concentration, E1A-Bcl2 killing assay): 20% | inhibition at 510 µM ([8]; at 510 μM, read-out: % inhibition at μM concentration, Anti-apoptotic:Pro-apoptotic binding assay Bcl-2): 45%

Undecylprodiginine
Cytotoxicity (% Dead Cells) ([2]; B23 cells, 1.0 μM, 72 h): 18% | Cytotoxicity (% Dead Cells) ([2]; B23 cells, 5.0 μM, 72 h): 25% | % inhibition at μM concentration, E1A-Bcl2 killing assay ([5]; at 5 μM): 25%; 5 μM | % inhibition at μM concentration, Anti-apoptotic:Pro-apoptotic binding assay Bcl-2 ([8]; at 500 μM): 40%; 500 μM
